{
  "source": "patent US9309547B2",
  "about": "“Methods for making tocoflexols and analogues thereof” (The Board of Trustees of the University of Arkansas, priority 2012, dated 2016)",
  "key": {"rat liver microsomes": {"system": "rat liver microsomes", "test": "Inhibition of lipid peroxidation in rat liver microsomes treated with TBHP", "type": "biochemical, Wistar rat", "settings": "FIG. 2; for IC50: 1 mg/ml microsomal protein, 37° C. 1 hour preincubation, 200 μM TBHP for 30 min", "method": "One of the most well-known properties of the vitamin E components is their ability to prevent lipid peroxidation. See Traber et al. (2011) Free Radis Biol Med 51(5):1000-1013. Briefly, the antioxidant activity of vitamin E analogs was evaluated in rat liver microsomes by measuring inhibition of lipid peroxidation after TBHP ([…]) treatment. Wistar rat liver microsomes (BD Biosciences) were diluted in phosphate buffer, 0.1 M (pH 7.4), at the final protein concentration of 1 mg/ml. The microsomes were treated with different concentrations of tocols (diluted with DMSO) and incubated at 37° C. for 1 hour before inducing lipid peroxidation with 200 μM TBHP (DMSO) for 30 min."}, "Mouse NSC 34 cells": {"system": "Mouse NSC 34 cells", "test": "Cell uptake of tocols by NSC 34 cells (GC/MS)", "type": "cell-based", "settings": "final concentration 5 μM, 0-24 hours, FIG. 1", "method": "The experiment was carried out as described below. Mouse NSC 34 cells were grown in Dulbecco's modified Eagle's medium (DMEM) supplemented with 10% fetal bovine serum and 1% penicillin/streptomycin at 37° C. in a humidified atmosphere containing 95% air and 5% CO2. The cell culture medium was replaced every 2 or 3 days with fresh medium containing serum and antibiotic. Cells were reseeded when the cell monolayers became confluent. For the experiments, cells at passages 15-27 were seeded in 6-well plates at 1 million cells per well. 5 mM test solutions were prepared in DMSO. NSC 34 monolayers above 80% confluency were treated with 2 μl of test compound (final concentration 5 μM) for 0, 1, 2, 4, 8, 12, and 24 hours. […] Hexane extracts were dried under nitrogen and were quantitatively transferred to a deactivated glass micro insert using methylene chloride and dried under nitrogen. […] Protein concentration was determined using the Pierce BCA protein assay kit. The derivatized samples were analyzed using GC/MS by single ion monitoring (Agilent 5975 GC/MSD; Agilent Technologies, Palo Alto, Calif.). […] Samples were analyzed using helium as the carrier gas (head pressure of 27 psi), 1 μl splitless injection, the injector temperature was 275° C., the column temperature was maintained at 220° C. for 2 min followed by a gradient of 25° C./min to 300° C., and remained at that temperature for 10 min. […]"}},
  "note": "Where “and” joins values, the source holds several entries; their conditions need not be identical. Equal values may be shown once.",
  "data": [
    {"compound": "CC(C)=CCC[C@@H](C)CCC/C(C)=C/CC[C@]1(C)CCc2cc(O)cc(C)c2O1", "note": "[δ-tocoflexol, (2R,8′S)-δ-tocoflexol]", "values": [
      {"measurement": "IC50", "setting": "rat liver microsomes", "value": 1.35, "unit": "µM"},
      {"measurement": "antioxidant potential, times that of α-tocopherol (AT)", "setting": "rat liver microsomes; rat liver microsomes treated with 200 μM TBHP", "value": "> 5 times and 5 times"},
      {"measurement": "cell-uptake compared with that of α-tocopherol", "setting": "Mouse NSC 34 cells", "value": "almost double"}
    ]},
    {"compound": "Cc1c(C)c2c(c(C)c1O)CC[C@@](C)(CCC[C@H](C)CCC[C@H](C)CCCC(C)C)O2", "note": "[AT, α-tocopherol, reference compound]", "values": [
      {"measurement": "IC50", "setting": "rat liver microsomes", "value": 6.78, "unit": "µM"}
    ]}
  ]
}
